Data as given in PubChem BioAssay (NCI).
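Method: 48-hour compound exposure of cells in 96-well plates, five concentrations, linear interpolation of endpoints. At the TGI there is no net growth.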

Legend:
Assay in all cases: growth of human tumour cells (NCI), 48 h
SF-295 CNS = system: SF-295 CNS
NCI-H23 lung = system: NCI-H23 lung
SW-620 colon = system: SW-620 colon
IGROV1 ovarian = system: IGROV1 ovarian
NCI-H226 lung = system: NCI-H226 lung
MALME-3M melanoma = system: MALME-3M melanoma
OVCAR-3 ovarian = system: OVCAR-3 ovarian
M14 melanoma = system: M14 melanoma
PC-3 prostate = system: PC-3 prostate
COLO 205 colon = system: COLO 205 colon
SK-OV-3 ovarian = system: SK-OV-3 ovarian
MOLT-4 leukemia = system: MOLT-4 leukemia
HL-60(TB) leukemia = system: HL-60(TB) leukemia
SK-MEL-5 melanoma = system: SK-MEL-5 melanoma
K-562 leukemia = system: K-562 leukemia
EKVX NSCLC = system: EKVX NSCLC
UACC-62 melanoma = system: UACC-62 melanoma
A498 renal = system: A498 renal
786-0 renal = system: 786-0 renal
SNB-75 CNS = system: SNB-75 CNS
HCT-15 colon = system: HCT-15 colon
ACHN renal = system: ACHN renal
SN12C renal = system: SN12C renal
RPMI-8226 leukemia = system: RPMI-8226 leukemia
T-47D breast = system: T-47D breast
BT-549 breast = system: BT-549 breast
OVCAR-4 ovarian = system: OVCAR-4 ovarian
HOP-92 NSCLC = system: HOP-92 NSCLC
SF-539 CNS = system: SF-539 CNS
MDA-MB-231 breast = system: MDA-MB-231 breast
SF-268 CNS = system: SF-268 CNS
OVCAR-5 ovarian = system: OVCAR-5 ovarian
HCC-2998 colon = system: HCC-2998 colon
HT29 colon = system: HT29 colon
U251 CNS = system: U251 CNS
A549 NSCLC = system: A549 NSCLC
DU-145 prostate = system: DU-145 prostate
HCT-116 colon = system: HCT-116 colon
UO-31 renal = system: UO-31 renal
HS 578T breast = system: HS 578T breast
OVCAR-8 ovarian = system: OVCAR-8 ovarian
NCI-H522 lung = system: NCI-H522 lung
NCI/ADR-RES ovarian = system: NCI/ADR-RES ovarian
LOX IMVI melanoma = system: LOX IMVI melanoma
SK-MEL-28 melanoma = system: SK-MEL-28 melanoma
MDA-MB-435 = system: MDA-MB-435
MCF7 breast = system: MCF7 breast
SNB-19 CNS = system: SNB-19 CNS
HOP-62 NSCLC = system: HOP-62 NSCLC
UACC-257 melanoma = system: UACC-257 melanoma
TK-10 renal = system: TK-10 renal
NCI-H460 lung = system: NCI-H460 lung
SK-MEL-2 melanoma = system: SK-MEL-2 melanoma
MDA-N = system: MDA-N
RXF 393 renal = system: RXF 393 renal
KM12 colon = system: KM12 colon
SR leukemia = system: SR leukemia
CAKI-1 renal = system: CAKI-1 renal
CCRF-CEM leukemia = system: CCRF-CEM leukemia

Cc1c2cccc(Sc3ccccc3)c2c2c3c(cccc13)[S+](c1ccccc1)C2 (stereo unspecified)
TGI (SF-295 CNS): 6.33 µM | TGI (NCI-H23 lung): 9.82 µM | TGI (SW-620 colon): 16.7 µM | TGI (IGROV1 ovarian): 9.12 µM | TGI (NCI-H226 lung): 7.54 µM | TGI (MALME-3M melanoma): 4.67 µM | TGI (OVCAR-3 ovarian): 6.01 µM | TGI (M14 melanoma): 6.78 µM | TGI (PC-3 prostate): 5.71 µM | TGI (COLO 205 colon): 2.46 µM | TGI (SK-OV-3 ovarian): 6.58 µM | TGI (MOLT-4 leukemia): 4.55 µM | TGI (HL-60(TB) leukemia): 2.82 µM | TGI (SK-MEL-5 melanoma): 2.1 µM | TGI (K-562 leukemia): 11.2 µM | TGI (EKVX NSCLC): 19.5 µM | TGI (UACC-62 melanoma): 3.67 µM | TGI (A498 renal): 8.32 µM | TGI (786-0 renal): 13.9 µM | TGI (SNB-75 CNS): 8.14 µM | TGI (HCT-15 colon): 27.8 µM | TGI (ACHN renal): 12.7 µM | TGI (SN12C renal): 11.5 µM | TGI (RPMI-8226 leukemia): 2.85 µM | TGI (T-47D breast): 8.24 µM | TGI (BT-549 breast): 9.87 µM | TGI (OVCAR-4 ovarian): 11.7 µM | TGI (HOP-92 NSCLC): 6.6 µM | TGI (SF-539 CNS): 7.91 µM | TGI (MDA-MB-231 breast): 5.68 µM | TGI (SF-268 CNS): 11.8 µM | TGI (OVCAR-5 ovarian): 12.1 µM | TGI (HCC-2998 colon): 4.49 µM | TGI (HT29 colon): 7.38 µM | TGI (U251 CNS): 9.41 µM | TGI (A549 NSCLC): 14.7 µM | TGI (DU-145 prostate): 15.3 µM | TGI (HCT-116 colon): 9.59 µM | TGI (UO-31 renal): 8.28 µM | TGI (HS 578T breast): 13.9 µM | TGI (OVCAR-8 ovarian): 12.4 µM | TGI (NCI-H522 lung): 4.51 µM | TGI (NCI/ADR-RES ovarian): > 100 µM | TGI (LOX IMVI melanoma): 3.52 µM | TGI (SK-MEL-28 melanoma): 6.84 µM | TGI (MDA-MB-435): 5.24 µM | TGI (MCF7 breast): 8.93 µM | TGI (SNB-19 CNS): 11.2 µM | TGI (HOP-62 NSCLC): 7.35 µM | TGI (UACC-257 melanoma): 3.57 µM | TGI (TK-10 renal): 9.55 µM | TGI (NCI-H460 lung): 4.1 µM | TGI (SK-MEL-2 melanoma): 3.71 µM | TGI (MDA-N): 13.8 µM | TGI (RXF 393 renal): 14.9 µM | TGI (KM12 colon): 2.85 µM | TGI (SR leukemia): 4.91 µM | TGI (CAKI-1 renal): 11.4 µM

N#C/C(=C/N1C(=O)/C(=C/c2ccc([N+](=O)[O-])cc2)SC1=S)c1nc2ccccc2s1
TGI (SF-295 CNS): 33.9 µM | TGI (NCI-H23 lung): 89.1 µM | TGI (SW-620 colon): > 100 µM | TGI (IGROV1 ovarian): > 100 µM | TGI (NCI-H226 lung): 78.4 µM | TGI (MALME-3M melanoma): 73.3 µM | TGI (OVCAR-3 ovarian): 15.9 µM | TGI (M14 melanoma): 98.5 µM | TGI (PC-3 prostate): 40.4 µM | TGI (COLO 205 colon): 30 µM | TGI (SK-OV-3 ovarian): 43.6 µM | TGI (HL-60(TB) leukemia): > 100 µM | TGI (SK-MEL-5 melanoma): 26.9 µM | TGI (K-562 leukemia): > 100 µM | TGI (EKVX NSCLC): 61.4 µM | TGI (UACC-62 melanoma): 24 µM | TGI (A498 renal): 33.2 µM | TGI (786-0 renal): > 100 µM | TGI (SNB-75 CNS): 69.2 µM | TGI (HCT-15 colon): > 100 µM | TGI (ACHN renal): 55.3 µM | TGI (SN12C renal): 81 µM | TGI (RPMI-8226 leukemia): 68.7 µM | TGI (T-47D breast): 69.5 µM | TGI (BT-549 breast): 73.7 µM | TGI (OVCAR-4 ovarian): > 100 µM | TGI (HOP-92 NSCLC): 63.3 µM | TGI (SF-539 CNS): > 100 µM | TGI (MDA-MB-231 breast): 37 µM | TGI (SF-268 CNS): > 100 µM | TGI (OVCAR-5 ovarian): 80.8 µM | TGI (HCC-2998 colon): 29.9 µM | TGI (HT29 colon): > 100 µM | TGI (U251 CNS): 41.7 µM | TGI (A549 NSCLC): > 100 µM | TGI (DU-145 prostate): > 100 µM | TGI (HCT-116 colon): 32.7 µM | TGI (UO-31 renal): 63.3 µM | TGI (HS 578T breast): > 100 µM | TGI (OVCAR-8 ovarian): > 100 µM | TGI (NCI-H522 lung): 53.8 µM | TGI (NCI/ADR-RES ovarian): > 100 µM | TGI (LOX IMVI melanoma): > 100 µM | TGI (SK-MEL-28 melanoma): > 100 µM | TGI (CCRF-CEM leukemia): > 100 µM | TGI (MDA-MB-435): > 100 µM | TGI (MCF7 breast): 83.2 µM | TGI (SNB-19 CNS): > 100 µM | TGI (HOP-62 NSCLC): 7.32 µM | TGI (UACC-257 melanoma): 40.5 µM | TGI (TK-10 renal): 66.9 µM | TGI (NCI-H460 lung): 43.8 µM | TGI (SK-MEL-2 melanoma): 36 µM | TGI (MDA-N): > 100 µM | TGI (RXF 393 renal): 52.6 µM | TGI (KM12 colon): > 100 µM | TGI (SR leukemia): > 100 µM | TGI (CAKI-1 renal): > 100 µM
